Broadly, the EC50 is the concentration needed to bring the measured effect to its halfway point. The Ki is the dissociation constant of the complex between target and ligand, obtained from inhibition or displacement. What is called Kd is a measure of binding affinity in units of concentration. As usually defined, the half-life is the time needed for the level to fall by half in the phase considered.

The record followed here is ChEMBL document CHEMBL5380799, “Comprehensive Peptide Cyclization Examination Yields Optimized APP Scaffolds with Improved Affinity toward Mint2” (J Med Chem, 2023).

*1 amine or outer side, *2 acyl side, *3 side chain or, on linkers, in order; H or OH if unused. Where a SMILES comes first, the peptide text is derived from it. Bridges are numbered along the chain shown (N, C = ends). Triazole bridges read from a SMILES are 1,4-linked. [ ]: non-standard residue; d: D form. The star is where a group is joined. Perfluorobiphenyl(4,4') = Fc1c(F)c([*:1])c(F)c(F)c1-c1c(F)c(F)c([*:2])c(F)c1F; Pyridine(2,6-diCH2) = c1cc(C[*:1])nc(C[*:2])c1; Lys(N3) = [N-]=[N+]=NCCCC[C@H](N)C(=O)O; NH(CH2CH2O)2(CH2)6Cl = ClCCCCCCOCCOCCN*; Orn(N3) = [N-]=[N+]=NCCC[C@H](N)C(=O)O; pXylylene = c1cc(C[*:2])ccc1C[*:1]; S8 = C=CCCCCCC[C@](C)(N)C(=O)O; Suc = O=C(CCC(=O)[*:2])[*:1]; S5 = C=CCCC[C@](C)(N)C(=O)O; Hpra = C#CCC[C@H](N)C(=O)O; Pra = C#CC[C@H](N)C(=O)O

Series [1] in a line: Drug uptake in human HeLa cells assessed as drug penetration incubated for 4 hrs by CA-TAMRA based CAPA assay. The format is ADME, cell-based.
Series [2] can be described thus: Binding affinity to N-terminal hexahistidine-tagged recombinant human Mint2-PARM (364 to 570 residues) in presence of probe [(TAMRA)-NNG-QNGYENPTYKFFEQMQN] by fluorescense polarization assay.
A short description of series [3]: Binding affinity to N-terminal hexahistidine-tagged recombinant human Mint2-PARM (364 to 570 residues) by ITC method. On the technique in general: In ITC the heat of successive injections is recorded.
The next series deals with trypsin. Description: Stability of compound in PBS at pH 7.4 assessed as bovine pancreas trypsin mediated degradation by measuring half life at 100 uM measured after 120 mins by RP UPLC analysis. The conditions noted are these: cattle. The class given is ADME, tissue-based, Bos taurus.
Series [4] deals with Streptomyces griseus protease. Briefly: Stability of compound in PBS at pH 7.4 assessed as Streptomyces griseus protease mediated degradation by measuring half life at 100 uM measured after 120 mins by RP UPLC analysis. The class given is ADME.
The next series concerns the target proteinase K (Engyodontium album, UniProt P06873). Description: Stability of compound in PBS at pH 7.4 assessed as Parengyodontium album proteinase K mediated degradation by measuring half life at 100 uM measured after 120 mins by RP UPLC analysis. The format is ADME.
Series [5] can be described thus: Metabolic stability in human plasma assessed as half life at 500 uM incubated for 480 mins by RP UPLC analysis. The format is ADME, cell-free.
The test system of another series is SH-SY5Y. Briefly: Cytotoxicity against human SH-SY5Y cells assessed as reduction in cell viability at 100 uM incubated for 48 hrs by MTT assay. The class given is toxicity, cell-based.
The species named for a further series is Homo sapiens. Description: Binding affinity to N-terminal hexahistidine-tagged recombinant human Mint2-PARM (364 to 570 residues) assessed as change in entropy by ITC method.

Sequence of proteinase K (P06873 whole entry): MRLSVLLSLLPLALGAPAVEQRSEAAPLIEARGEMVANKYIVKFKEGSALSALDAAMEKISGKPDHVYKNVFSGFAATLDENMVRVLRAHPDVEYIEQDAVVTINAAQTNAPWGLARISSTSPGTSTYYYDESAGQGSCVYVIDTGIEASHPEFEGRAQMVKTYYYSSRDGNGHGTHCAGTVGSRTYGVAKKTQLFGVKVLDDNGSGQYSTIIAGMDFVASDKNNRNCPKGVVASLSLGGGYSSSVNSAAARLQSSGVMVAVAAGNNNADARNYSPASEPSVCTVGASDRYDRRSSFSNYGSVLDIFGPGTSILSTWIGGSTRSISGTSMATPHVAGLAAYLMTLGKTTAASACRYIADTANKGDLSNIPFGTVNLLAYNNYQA

Take `C[C@@]1(C(=O)N[C@H](CCC(=O)O)C(=O)O)CCC/C=C\CCC[C@](C)(NC(=O)[C@@H]2CCCN2C(=O)[C@H](CC(N)=O)NC(=O)[C@H](CCC(=O)O)NC(=O)[C@H](Cc2ccc(O)cc2)NC(=O)CNC(=O)[C@H](CC(N)=O)NC(=O)CCC(=O)NCCOCCOCCCCCCCl)C(=O)N[C@@H](Cc2ccc(O)cc2)C(=O)N[C@@H](CCCCN)C(=O)N[C@@H](Cc2ccccc2)C(=O)N1`: the EC50 in series [1] worked out at 77.9 µM.
As for `NCCCC[C@@H]1NC(=O)[C@H](Cc2ccc(O)cc2)NC(=O)[C@@H](NC(=O)[C@@H]2CCCN2C(=O)[C@H](CC(N)=O)NC(=O)[C@H](CCC(=O)O)NC(=O)[C@H](Cc2ccc(O)cc2)NC(=O)CNC(=O)[C@@H](N)CC(N)=O)CCCn2cc(nn2)CC[C@@H](C(=O)N[C@@H](CCC(=O)O)C(=O)O)NC(=O)[C@H](Cc2ccccc2)NC1=O` (H-NGYENP[Orn(N3)]YKF[Hpra]E-OH; triazole 7-11), the inhibition constant (Ki) in series [2] was 64.6 µM.
Take `NCCCC[C@@H]1NC(=O)[C@H](Cc2ccc(O)cc2)NC(=O)[C@@H](NC(=O)[C@@H]2CCCN2C(=O)[C@H](CC(N)=O)NC(=O)[C@H](CCC(=O)O)NC(=O)[C@H](Cc2ccc(O)cc2)NC(=O)CNC(=O)[C@@H](N)CC(N)=O)CCCCNC(=O)C[C@@H](C(=O)N[C@@H](CCC(=O)O)C(=O)O)NC(=O)[C@H](Cc2ccccc2)NC1=O` (H-NGYENPKYKFDE-OH; lactam 7-11): the inhibitory constant (Ki) in series [2] was 1 µM. Further, the Kd in [3] turned out to be 5.77 µM. Further, the results for the half-life at 100 µM (in the series with trypsin; in series [4]; on proteinase K) were above 2 h, 0.45 h and above 2 h, respectively. Also, the half-life at 500 µM in series [5] came to 1.18 h. Also, the half-maximal effective concentration (EC50) in series [1] is 77.9 µM.
On to `NCCCC[C@H]1NC(=O)[C@@H](Cc2ccc(O)cc2)NC(=O)[C@H](NC(=O)[C@@H]2CCCN2C(=O)[C@@H](CC(N)=O)NC(=O)[C@H](CCC(=O)O)NC(=O)[C@H](Cc2ccc(O)cc2)NC(=O)CNC(=O)[C@H](N)CC(N)=O)CC(=O)NCC[C@H](C(=O)N[C@H](CCC(=O)O)C(=O)O)NC(=O)[C@@H](Cc2ccccc2)NC1=O`, for which, in [2], the Ki was determined as 214 µM.
Same read-out and setting: to `C[C@@]1(C(=O)N[C@@H](CCC(=O)O)C(=O)O)CCCCCC/C=C/CCC[C@](C)(NC(=O)[C@@H]2CCCN2C(=O)[C@H](CC(N)=O)NC(=O)[C@H](CCC(=O)O)NC(=O)[C@H](Cc2ccc(O)cc2)NC(=O)CNC(=O)[C@@H](N)CC(N)=O)C(=O)N[C@@H](Cc2ccc(O)cc2)C(=O)N[C@@H](CCCCN)C(=O)N[C@@H](Cc2ccccc2)C(=O)N1` (H-NGYENP[S5]YKF[S8]E-OH; staple (E) 7-11) belongs 0.8 µM; to `NCCCC[C@@H]1NC(=O)[C@H](Cc2ccc(O)cc2)NC(=O)[C@@H](NC(=O)[C@@H]2CCCN2C(=O)[C@H](CC(N)=O)NC(=O)[C@H](CCC(=O)O)NC(=O)[C@H](Cc2ccc(O)cc2)NC(=O)CNC(=O)[C@@H](N)CC(N)=O)CSCc2ccc(cc2)CSC[C@@H](C(=O)N[C@@H](CCC(=O)O)C(=O)O)NC(=O)[C@H](Cc2ccccc2)NC1=O` (H-NGYENPCYKFCE-OH; linker 7-11 via pXylylene), 0.4 µM; to `NCCCC[C@@H]1NC(=O)[C@H](Cc2ccc(O)cc2)NC(=O)[C@@H](NC(=O)[C@@H]2CCCN2C(=O)[C@H](CC(N)=O)NC(=O)[C@H](CCC(=O)O)NC(=O)[C@H](Cc2ccc(O)cc2)NC(=O)CNC(=O)[C@@H](N)CC(N)=O)CSCc2cccc(n2)CSC[C@@H](C(=O)N[C@@H](CCC(=O)O)C(=O)O)NC(=O)[C@H](Cc2ccccc2)NC1=O` (H-NGYENPCYKFCE-OH; linker 7-11 via Pyridine(2,6-diCH2)), 6.5 µM.
As to `NCCCC[C@@H]1NC(=O)[C@H](Cc2ccc(O)cc2)NC(=O)[C@@H](NC(=O)[C@@H]2CCCN2C(=O)[C@H](CC(N)=O)NC(=O)[C@H](CCC(=O)O)NC(=O)[C@H](Cc2ccc(O)cc2)NC(=O)CNC(=O)[C@@H](N)CC(N)=O)CCSCc2ccc(cc2)CSCC[C@@H](C(=O)N[C@@H](CCC(=O)O)C(=O)O)NC(=O)[C@H](Cc2ccccc2)NC1=O`, in [2], the inhibition constant (Ki) is 0.3 µM. Moreover, the equilibrium dissociation constant (Kd) in series [3] turned out to be 1.04 µM. Also, the half-life at 100 µM (in the series on trypsin; in series [4]; at proteinase K) was above 2 h in each case. The half-life at 500 µM in series [5] worked out at 1.5 h. Moreover, the EC50 in series [1] was 14.5 µM.
As to `NCCCC[C@@H]1NC(=O)[C@H](Cc2ccc(O)cc2)NC(=O)[C@@H](NC(=O)[C@@H]2CCCN2C(=O)[C@H](CC(N)=O)NC(=O)[C@H](CCC(=O)O)NC(=O)[C@H](Cc2ccc(O)cc2)NC(=O)CNC(=O)[C@H](CC(N)=O)NC(=O)CCC(=O)NCCOCCOCCCCCCCl)CCSCc2ccc(cc2)CSCC[C@@H](C(=O)N[C@H](CCC(=O)O)C(=O)O)NC(=O)[C@H](Cc2ccccc2)NC1=O`, in [1], the concentration for a half-maximal effect (EC50) came out at 14.5 µM.
For H-NGYENPTYKFFE-OH, the Ki in series [2] worked out at 4 µM. For the same compound, the Activity in the series with SH-SY5Y came out at 20%. Besides, in the series on trypsin, the half-life at 100 µM was found to be 0.43 h.
As to `C[C@@H](O)[C@H](NC(=O)[C@@H]1CCCN1C(=O)[C@H](CC(N)=O)NC(=O)[C@H](CCC(=O)O)NC(=O)[C@H](Cc1ccc(O)cc1)NC(=O)CNC(=O)[C@H](CC(N)=O)NC(=O)CCC(=O)NCCOCCOCCCCCCCl)C(=O)N[C@@H](Cc1ccc(O)cc1)C(=O)N[C@@H](CCCCN)C(=O)N[C@@H](Cc1ccccc1)C(=O)N[C@@H](Cc1ccccc1)C(=O)N[C@@H](CCC(=O)O)C(=O)O` ({NH(CH2CH2O)2(CH2)6Cl-Suc}-NGYENPTYKFFE-OH), in series [1], the half-maximal effective concentration (EC50) came out at 42 µM.
For the compound `C[C@@]1(C(=O)N[C@@H](CCC(=O)O)C(=O)O)CCC/C=C\CCCCCC[C@](C)(NC(=O)[C@@H]2CCCN2C(=O)[C@H](CC(N)=O)NC(=O)[C@H](CCC(=O)O)NC(=O)[C@H](Cc2ccc(O)cc2)NC(=O)CNC(=O)[C@@H](N)CC(N)=O)C(=O)N[C@@H](Cc2ccc(O)cc2)C(=O)N[C@@H](CCCCN)C(=O)N[C@@H](Cc2ccccc2)C(=O)N1` (H-NGYENP[S8]YKF[S5]E-OH; staple (Z) 7-11), the Ki in series [2] worked out at 2.3 µM.
Take `NCCCC[C@H](NC(=O)[C@H](Cc1ccc(O)cc1)NC(=O)[C@H](CS)NC(=O)[C@@H]1CCCN1C(=O)[C@H](CC(N)=O)NC(=O)[C@H](CCC(=O)O)NC(=O)[C@H](Cc1ccc(O)cc1)NC(=O)CNC(=O)[C@@H](N)CC(N)=O)C(=O)N[C@@H](Cc1ccccc1)C(=O)N[C@@H](CS)C(=O)N[C@@H](CCC(=O)O)C(=O)O` (H-NGYENPCYKFCE-OH): the inhibitory constant (Ki) in [2] is 21.4 µM.
For `NCCCC[C@@H]1NC(=O)[C@H](Cc2ccc(O)cc2)NC(=O)[C@@H](NC(=O)[C@H]2CCCN2C(=O)[C@H](CC(N)=O)NC(=O)[C@@H](CCC(=O)O)NC(=O)[C@@H](Cc2ccc(O)cc2)NC(=O)CNC(=O)[C@@H](N)CC(N)=O)CCSCc2ccc(cc2)CSCC[C@@H](C(=O)N[C@@H](CCC(=O)O)C(=O)O)NC(=O)[C@H](Cc2ccccc2)NC1=O`, the TdeltaS in the series listed under Homo sapiens was -2.03 kcal/mol.
`NCCCC[C@@H]1NC(=O)[C@H](Cc2ccc(O)cc2)NC(=O)[C@@H](NC(=O)[C@@H]2CCCN2C(=O)[C@H](CC(N)=O)NC(=O)[C@H](CCC(=O)O)NC(=O)[C@H](Cc2ccc(O)cc2)NC(=O)CNC(=O)[C@@H](N)CC(N)=O)CCCCn2cc(nn2)C[C@@H](C(=O)N[C@@H](CCC(=O)O)C(=O)O)NC(=O)[C@H](Cc2ccccc2)NC1=O` (H-NGYENP[Lys(N3)]YKF[Pra]E-OH; triazole 7-11): in series [2], the Ki worked out at 1.2 µM. For the same compound, the equilibrium dissociation constant (Kd) in series [3] came out at 1 µM. Also, the half-life at 100 µM with trypsin was above 2 h; in series [4] it was 0.333 h; on proteinase K it was 0.467 h. Further, the half-life at 500 µM in [5] turned out to be 0.675 h. Moreover, the EC50 in series [1] was 42.9 µM.
For `NCCCC[C@@H]1NC(=O)[C@H](Cc2ccc(O)cc2)NC(=O)[C@@H](NC(=O)[C@@H]2CCCN2C(=O)[C@H](CC(N)=O)NC(=O)[C@H](CCC(=O)O)NC(=O)[C@H](Cc2ccc(O)cc2)NC(=O)CNC(=O)[C@@H](N)CC(N)=O)CSc2c(F)c(F)c(c(F)c2F)-c2c(F)c(F)c(c(F)c2F)SC[C@@H](C(=O)N[C@@H](CCC(=O)O)C(=O)O)NC(=O)[C@H](Cc2ccccc2)NC1=O` (H-NGYENPCYKFCE-OH; linker 7-11 via Perfluorobiphenyl(4,4')), in series [2], the Ki is 0.9 µM.
Turning to `C[C@@]1(C(=O)N[C@@H](CCC(=O)O)C(=O)O)CCC/C=C\CCC[C@](C)(NC(=O)[C@@H]2CCCN2C(=O)[C@H](CC(N)=O)NC(=O)[C@H](CCC(=O)O)NC(=O)[C@@H](Cc2ccc(O)cc2)NC(=O)CNC(=O)[C@H](N)CC(N)=O)C(=O)N[C@@H](Cc2ccc(O)cc2)C(=O)N[C@@H](CCCCN)C(=O)N[C@@H](Cc2ccccc2)C(=O)N1`, in series [2], the Ki was found to be 0.5 µM. Besides, the dissociation constant (Kd) in series [3] stood at 0.24 µM. The half-life at 100 µM (in the series on trypsin; in [4]; at proteinase K) was above 2 h in each case. Besides, the half-life at 500 µM in [5] stood at 2.02 h. Also, in the series filed under Homo sapiens, the TdeltaS was -1.44 kcal/mol. Further, in series [1], the EC50 turned out to be 33.3 µM.
